# Results published in patent US4992470A, “Method of enhancing immune response of mammals” (Iowa State University Research Foundation, Inc., priority 1990, dated 1991).
# What was measured:
# [1] = Hygroscopicity of HMB salts; assay type: physicochemical; conditions: compared with Ca-HMB
# [2] = test system: lymphocytes; test: In vitro effects of leucine or leucine metabolites on PHA-stimulated lymphocyte blastogenesis (3H-thymidine incorporation); assay type: cell-based, bovine; conditions: for activation at 1000 µM: Bos taurus, Lymphocyte, 72 h, final concentration 1 mM, PHA stimulated, read-out: % Change from No Additive, in vitro lymphocyte blastogenesis (Mean Percent Change, SEM)
# Protocol: Lymphocyte Blastogenesis Determinations. Blood collections, lymphocyte isolation and blastogenesis assays were performed on isolated bovine cells by using a 3-d culture procedure as described previously in Kuhlman, et al. (1988), J. Nutr., 118:1564-1569.
# Isolated lymphocytes were exposed to 1 and 10 mM Leu and KIC and the metabolites isovalarate, β-hydroxy-β-methyl butyrate (HMB), β-hydroxy-β-methyl glutarate, butyrate, acetate, acetone, acetoacetate, and β-hydroxy butyrate (BOHB). The cells were then stimulated with the mitogen phytohemagglutinin, and incorporation of ^3 H-thymidine into the DNA of the dividing lymphocytes was measured.
# Leucine and Leucine Metabolites. Most of the compounds listed in Table B were purchased from Sigma Chemical Company, St. Louis, MO. KIC was purchased from SOBAC (Paris, France), HMB was synthesized as described in Example 1, and the calcium salt of HMB was purified by crystallization in 95% ethanol. The calcium salt was converted to a sodium salt form and used in subsequent assays. The pH of all compounds was adjusted to approximately 7.3. Compounds were passed through a 0.2-um filter assembly to assure sterility.
SMILES,Hygroscopicity (in words) [1],Effect on blastogenesis (in words) [2],activation at 1000 µM [2]
CC(C)(O)CC(=O)O [Na-HMB],more hydroscopic than Ca-HMB,–,–
CC(O)(CC(=O)O)CC(=O)O [β-hydroxy-β-methyl glutarate],–,increased blastogenesis slightly,28%
"CC(O)CC(=O)O (stereo not drawn) [β-hydroxybutyrate, β-hydroxy butyrate]",–,increased blastogenesis slightly,25%
